Experimental data taken from US6576657B2, “Amidino derivatives and their use as thrombin inhibitors” (AstraZeneca AB, priority 1997, dated 2003).

Biological target: T1, Human thrombin (Homo sapiens, UniProt P00734)
T1 construct: conversion of the proenzyme prothrombin to the active enzyme thrombin; purchased Sigma Chem Co T 6769
Test: Test A: determination of thrombin clotting time (TT)
Type: biochemical
Conditions: concentration of inhibitor that doubles the thrombin clotting time for human plasma
Protocol: Determination of Thrombin Clotting Time (TT)
The inhibitor solution (25 μL) was incubated with plasma (25 μL) for three minutes. Human thrombin (T 6769; Sigma Chem Co) in buffer solution, pH 7.4 (25 μL) was then added and the clotting time measured in an automatic device (KC 10; Amelung).
The clotting time in seconds was plotted against the inhibitor concentration, and the IC50TT was determined by interpolation.
IC50TT is the concentration of inhibitor in the test that doubles the thrombin clotting time for human plasma.

Row | Structure (SMILES) | IC50 [nM]
1 | COc1ccc2c(c1)C(O)(C(=O)N1CCC1C(=O)N(C)Cc1ccc(C(=N)N)cc1)CCC2 (single isomer, unassigned) [Example 37, (S)- or (R)-1-Hydroxy-7-methoxytetralin-1-yl-C(O)-Aze-N(Me)-Bzl-4-C(NH2)NH×HOAc] | < 300
2 | N=C(N)c1ccc(CNC(=O)[C@@H]2CCN2C(=O)C2(O)c3ccccc3-c3ccccc32)cc1 [Example 38, 9-Hydroxyfluoren-9-yl-C(O)-Aze-Pab×HOAc] | < 300
